Experimental data reported in ChEMBL document CHEMBL1135701, “Discovery of a 3-amino-6-phenyl-pyridazine derivative as a new synthetic antineuroinflammatory compound” (J Med Chem, 2002).

Assays:
Protein kinase C (PKC) = assay: Inhibition of Protein kinase C (PKC) activity, Enzyme assay done using gamma-[32P]ATP and synthetic peptide substrates; set-up: species or system Rattus norvegicus
MAP kinase p38 = MAP kinase p38 (Homo sapiens, UniProt O15264+Q15759+Q16539+P53778); assay: Inhibition of p38 Mitogen-activated protein kinase; assay type: protein assay
[1] = target: Ca2+/calmodulin-dependent protein kinase II (CaM kinase II) (Rattus norvegicus, UniProt P11275+P08413+P15791+P11730); assay: Inhibition of Calcium/calmodulin-dependent protein kinase type II (CaMKII) activity; assay type: protein assay
[2] = target: Myosin light chain kinase, smooth muscle (Gallus gallus, UniProt P11799); assay: Inhibition of Myosin Light Chain kinase (MLCK)
Sequence of Myosin light chain kinase, smooth muscle (P11799 whole entry): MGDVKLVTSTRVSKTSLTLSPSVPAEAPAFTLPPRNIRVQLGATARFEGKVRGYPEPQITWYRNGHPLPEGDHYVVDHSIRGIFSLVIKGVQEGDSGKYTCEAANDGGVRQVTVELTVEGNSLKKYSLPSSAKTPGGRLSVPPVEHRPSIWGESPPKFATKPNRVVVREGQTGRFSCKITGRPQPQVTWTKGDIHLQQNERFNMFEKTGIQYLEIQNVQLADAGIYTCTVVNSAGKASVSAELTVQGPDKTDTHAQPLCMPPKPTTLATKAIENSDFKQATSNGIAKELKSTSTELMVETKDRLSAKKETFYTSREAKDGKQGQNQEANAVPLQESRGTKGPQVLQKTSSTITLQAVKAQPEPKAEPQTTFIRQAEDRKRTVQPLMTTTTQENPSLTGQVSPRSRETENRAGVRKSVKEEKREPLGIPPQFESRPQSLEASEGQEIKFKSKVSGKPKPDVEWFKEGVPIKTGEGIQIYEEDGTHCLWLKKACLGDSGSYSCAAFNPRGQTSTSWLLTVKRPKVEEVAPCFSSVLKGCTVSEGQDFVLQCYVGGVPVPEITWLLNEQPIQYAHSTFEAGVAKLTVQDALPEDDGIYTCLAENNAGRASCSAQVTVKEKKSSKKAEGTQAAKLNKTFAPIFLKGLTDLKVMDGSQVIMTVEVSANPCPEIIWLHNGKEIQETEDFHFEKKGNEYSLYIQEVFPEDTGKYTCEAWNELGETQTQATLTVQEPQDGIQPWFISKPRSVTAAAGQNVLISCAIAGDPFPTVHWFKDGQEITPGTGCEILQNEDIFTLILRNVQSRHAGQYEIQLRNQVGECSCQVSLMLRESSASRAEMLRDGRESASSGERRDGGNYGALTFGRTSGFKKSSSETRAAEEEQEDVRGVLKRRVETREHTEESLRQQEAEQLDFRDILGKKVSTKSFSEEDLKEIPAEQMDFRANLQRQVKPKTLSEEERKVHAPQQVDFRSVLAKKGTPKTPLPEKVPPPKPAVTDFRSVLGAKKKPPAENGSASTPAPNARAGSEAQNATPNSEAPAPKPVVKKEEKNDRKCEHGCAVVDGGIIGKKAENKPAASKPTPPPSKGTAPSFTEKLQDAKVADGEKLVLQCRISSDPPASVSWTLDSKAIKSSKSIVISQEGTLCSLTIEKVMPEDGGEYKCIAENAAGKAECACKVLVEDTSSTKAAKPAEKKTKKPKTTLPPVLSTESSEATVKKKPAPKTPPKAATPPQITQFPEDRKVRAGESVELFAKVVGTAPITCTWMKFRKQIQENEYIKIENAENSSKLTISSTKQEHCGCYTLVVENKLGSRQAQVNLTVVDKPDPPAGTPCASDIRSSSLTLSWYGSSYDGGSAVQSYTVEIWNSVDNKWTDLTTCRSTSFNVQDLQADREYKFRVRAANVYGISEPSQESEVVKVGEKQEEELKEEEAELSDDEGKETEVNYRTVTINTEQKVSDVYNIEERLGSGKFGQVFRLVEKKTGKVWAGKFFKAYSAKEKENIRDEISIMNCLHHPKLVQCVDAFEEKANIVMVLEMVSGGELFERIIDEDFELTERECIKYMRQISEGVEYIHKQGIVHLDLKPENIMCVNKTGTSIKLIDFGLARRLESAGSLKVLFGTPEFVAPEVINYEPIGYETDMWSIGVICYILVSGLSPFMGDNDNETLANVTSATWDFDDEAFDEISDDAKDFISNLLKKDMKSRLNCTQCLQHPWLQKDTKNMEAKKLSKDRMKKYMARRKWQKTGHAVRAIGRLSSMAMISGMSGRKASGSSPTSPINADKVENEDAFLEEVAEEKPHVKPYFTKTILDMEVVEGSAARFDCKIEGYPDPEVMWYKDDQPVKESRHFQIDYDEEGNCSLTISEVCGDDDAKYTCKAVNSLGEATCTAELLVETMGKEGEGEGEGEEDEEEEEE

[3] = target: cAMP-dependent protein kinase A (Bos taurus, UniProt P00515+P00517+P05131+P31322); assay: Inhibition of Protein kinase A (PKA) activity, Enzyme assay was done using gamma-[32P]ATP and synthetic peptide substrates; assay type: protein-complex assay

| Structure (SMILES) | IC50 (Protein kinase C (PKC)) | IC50 (MAP kinase p38) | IC50 [1] | IC50 [2] | IC50 [3] |
| --- | --- | --- | --- | --- | --- |
| N=c1cc2c(nn1CCCCCCCCCCC(=O)N1CCN(c3ncccn3)CC1)-c1ccccc1CC2 | > 100 µM | > 100 µM | 9.7 µM | > 100 µM | > 100 µM |
| COc1ccc(S(=O)(=O)N(CCO)c2ccccc2CN(C)C/C=C/c2ccc(Cl)cc2)cc1 | > 100 µM | > 100 µM | 8.4 µM | – | > 100 µM |
